Data from PubChem BioAssay (NCI).
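Method: 48-hour compound exposure of cells in 96-well plates, five concentrations, linear interpolation of endpoints. The concentration for full growth arrest is given as TGI.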

Key:
Experiment in all cases: NCI-60 cell line screen, 48 h
[1] = system: K-562 leukemia
[2] = system: LOX IMVI melanoma
[3] = system: M14 melanoma
[4] = system: OVCAR-4 ovarian
[5] = system: SF-539 CNS
[6] = system: SK-MEL-2 melanoma
[7] = system: SK-MEL-5 melanoma
[8] = system: SW-620 colon
[9] = system: UO-31 renal
[10] = system: KM12 colon
[11] = system: SNB-75 CNS
[12] = system: HT29 colon
[13] = system: NCI-H460 lung
[14] = system: NCI/ADR-RES ovarian
[15] = system: MDA-N
[16] = system: T-47D breast
[17] = system: HCT-116 colon
[18] = system: MDA-MB-231 breast
[19] = system: HS 578T breast

Row | Structure (SMILES) | TGI [1] [µM] | TGI [2] [µM] | TGI [3] [µM] | TGI [4] [µM] | TGI [5] [µM] | TGI [6] [µM] | TGI [7] [µM] | TGI [8] [µM] | TGI [9] [µM] | TGI [10] [µM] | TGI [11] [µM] | TGI [12] [µM] | TGI [13] [µM] | TGI [14] [µM] | TGI [15] [µM] | TGI [16] [µM] | TGI [17] [µM] | TGI [18] [µM] | TGI [19] [µM]
1 | O=c1[nH]c(=O)n(C2CC(O)C(CO)O2)cc1C#Cc1cc(F)cc(F)c1 (stereo unspecified) | > 100 | > 100 | > 100 | > 100 | > 100 | > 100 | > 100 | > 100 | > 100 | > 100 | > 100 | > 100 | > 100 | – | – | – | – | – | –
2 | Cc1cc2[nH]c3c(C#N)c(-c4ccccc4)c(CN4CCOCC4)c(=O)n3c2cc1C | – | > 100 | > 100 | > 100 | > 100 | > 100 | – | > 100 | > 100 | > 100 | > 100 | – | > 100 | > 100 | > 100 | > 100 | > 100 | > 100 | –
3 | CCOC(=O)NC(=O)c1cn(CCSCCOC(=O)NCCCCCCNC(=O)OCCSCCn2cc(C(=O)NC(=O)OCC)c(=O)[nH]c2=O)c(=O)[nH]c1=O | > 100 | > 100 | > 100 | > 100 | > 100 | – | > 100 | > 100 | > 100 | – | > 100 | > 100 | > 100 | – | – | – | > 100 | – | –
4 | COc1cc(/C=C(\C#N)c2ccccn2)cc(Br)c1O | > 100 | – | > 100 | > 100 | > 100 | > 100 | > 100 | > 100 | > 100 | > 100 | > 100 | > 100 | > 100 | 75 | > 100 | – | > 100 | – | –
5 | COc1cccc(-n2c(N)c(-c3nc4cc(C(F)(F)F)ccc4s3)c3ccc([N+](=O)[O-])cc3c2=O)c1 | > 100 | – | > 100 | > 100 | – | > 100 | > 100 | – | > 100 | > 100 | > 100 | > 100 | > 100 | > 100 | > 100 | > 100 | > 100 | > 100 | –
6 | Cc1cc(C#N)c(Nc2c(C)cccc2[N+](=O)[O-])s1 | > 100 | – | > 100 | > 100 | > 100 | – | – | > 100 | > 100 | > 100 | 72.2 | – | > 100 | 82.3 | > 100 | > 100 | > 100 | 79.4 | –
7 | COc1ccc(-c2nnc(CCCCCCCCc3nnc(-c4ccc(OC)cc4)o3)o2)cc1 | > 100 | > 100 | > 100 | > 100 | > 100 | > 100 | > 100 | > 100 | > 100 | > 100 | 93.6 | > 100 | > 100 | > 100 | > 100 | – | > 100 | > 100 | –
8 | CC1=NN(C(=O)Cc2ccccc2)C(=O)/C1=C\c1ccco1 | > 100 | > 100 | > 100 | > 100 | > 100 | > 100 | > 100 | > 100 | > 100 | > 100 | > 100 | > 100 | – | – | – | – | > 100 | – | –
9 | COc1ccc([C@@H]2CC(=O)NCCCCNCCCN2)cc1 | > 100 | – | > 100 | > 100 | > 100 | > 100 | > 100 | > 100 | > 100 | > 100 | > 100 | > 100 | > 100 | – | – | – | > 100 | – | –
10 | S=C(Nc1ccccc1)N1N=C2c3ccccc3CC[C@H]2[C@@H]1c1ccccc1 | – | > 100 | > 100 | > 100 | > 100 | > 100 | – | > 100 | > 100 | > 100 | – | > 100 | > 100 | – | – | – | > 100 | – | –
11 | Cc1cc(NCCCCCCNc2cc(C)nc3ccc(Cl)cc23)c2cc(Cl)ccc2n1 | 18.4 | 28.7 | > 100 | 34.8 | 29.4 | 46 | 32.8 | – | 62.2 | 30.9 | 35.5 | 33.5 | 29.8 | – | – | – | 30.8 | – | –
12 | COc1cc(C=O)c(-c2cc3c(cc2C=O)OCO3)c(OC)c1OC | > 290 | > 290 | – | – | 188 | 190 | > 290 | > 290 | – | 159 | – | 186 | > 290 | – | – | – | 131 | – | –
13 | CCNCCCCNCC | > 3750 | > 3750 | – | > 3750 | > 3750 | > 3750 | > 3750 | > 3750 | > 3400 | > 3750 | > 3750 | > 3750 | > 1190 | > 3750 | – | – | > 3750 | – | –
14 | CN1OC2OC(=O)OC2[C@H]1[C@H]1O[C@H](c2ccccc2)OC1(C)c1cc(OC(=O)c2ccccc2)ccc1OC(=O)c1ccccc1 (stereo partly specified) | > 50 | > 50 | > 50 | > 50 | > 50 | > 50 | > 50 | > 50 | > 50 | > 50 | > 50 | > 50 | > 50 | – | – | – | > 50 | – | –
15 | OCSc1nn(CO)c(=S)s1 | 43.4 | 40.7 | 38.2 | 47 | 56.8 | 45.2 | > 100 | > 100 | – | 40.4 | 67.1 | 75.3 | 54.5 | 45.1 | – | 66.6 | 55.4 | 68.1 | 42.4
